Assay results taken from patent US20260224462A1, “ANTI-AGING COMPOSITION” (MITSUBISHI CORPORATION LIFE SCIENCES LIMITED, priority 2023, published 2026).

Assays:
Format in all cases: cell-based
B16 mouse melanoma cells = test: Melanin production suppression test in cultured cells; details: FIG. 5; for melanin production amount compared with the reference sample (absorbance at 405 nm): 0.02 mM or 0.05 mM at melanin induction with α-MSH 200 nM, p<0.01; for concentration needed for melanin production suppressing effect compared with kojic acid (1 mM) and reduced glutathione (3 mM): 0.02 mM or 0.05 mM of sample
Experimental: B16 mouse melanoma cells were seeded in a 6 well plate (2.0×10^4 cells/well), and cultured for 24 hours in D-MEM medium to which 5% fetal bovine serum was added with respect to the medium (5% CO2, 37° C.). […] The obtained pellets were washed twice with PBS (−), 150 μL of a 1 M sodium hydroxide solution was then added, and the mixture was treated at 100° C. for 10 minutes to dissolve the pellets, thereby preparing a reference sample. […] One hundred μL of a sample of each test section was added to a 96 well plate, and the absorbance at 405 nm was measured with a microplate reader (n=3). […] The significant difference test was performed on the measured value of the reference sample by the Dunnett method (*p<0.05, **p<0.01.).

Normal human fibroblasts [1] = test: Suppression of decrease in proliferation capability of aging-induced normal human fibroblasts (MTT assay); details: 50 μM or 100 μM, aging induced with 0.5 mM hydrogen peroxide; compared with only aging induction and with 100 μM reduced glutathione; p<0.005; FIG. 1
Experimental: Normal human fibroblasts were seeded in 96 well plates (3.0×10^3 cells/well, N=3) and precultured for 24 hours (5% CO2, 37° C.). As a medium, MEM-α, nucleosides medium (Gibco) containing fetal bovine serum (10% of serum-free medium was externally added) was used. Thereafter, the wells were washed once with PBS (−), then replaced with MEM-α, nucleoside medium containing fetal bovine serum (5% of serum-free medium was externally added) dissolved so that the final concentration of Sample 1 or Sample 2 was 50 μM or 100 μM, and further incubated for 30 minutes. Thereafter, fibroblasts were treated with a medium adjusted so that the final concentration of hydrogen peroxide was 0.5 mM to induce aging. Thereafter, an MTT assay was performed according to a conventional method, and the survival rate of fibroblasts was calculated as a relative value when the survival rate of cells in the test section in which neither treatment nor aging induction was performed was taken as 100.
For comparison, a test section in which only aging induction was performed and a test section in which reduced glutathione was 100 μM was set instead of Sample 1. […]

Normal human fibroblasts [2] = test: Suppression of decrease in hyaluronic acid production capability due to aging induction, fibroblasts (ELISA); details: 50 μM or 100 μM, 0.5 mM hydrogen peroxide; for amount of hyaluronic acid compared with test section of only aging induction: 24 h, ELISA, p<0.05, FIG. 3; for hyaluronic acid production capability compared with test sections that did not induce aging: no significant difference between the two groups, FIG. 3
Experimental: Normal human fibroblasts were seeded in 24 well plates (8.0×10^4 cells/well, N=3) and precultured for 24 hours (5% CO2, 37° C.). As a medium, MEM-α, nucleosides medium (Gibco) containing fetal bovine serum (10% of serum-free medium was externally added) was used. Thereafter, the wells were washed once with PBS (−), then replaced with MEM-α, nucleoside medium containing fetal bovine serum (5% of serum-free medium was externally added) dissolved so that the final concentration of Sample 1 or Sample 2 was 50 μM or 100 μM, and further incubated for 30 minutes. Thereafter, fibroblasts were treated with a medium adjusted so that the final concentration of hydrogen peroxide was 0.5 mM to induce aging. Thereafter, the culture medium was changed to MEM-α, nucleoside medium containing fetal bovine serum (5% of serum-free culture medium was externally added) and incubated for 24 hours, and then the amount of hyaluronic acid was quantified by ELISA using a hyaluronic acid quantification kit (Cosmo Bio Inc.).
The hyaluronic acid production amount in each test section was shown as a relative value when the hyaluronic acid production amount in each sample and the test section in which aging induction was not performed was taken as 100. Regarding the hyaluronic acid production amount, a significant difference test (t-test, two-tailed) between the two groups of the test section for Sample 1 and the test section for which only the aging induction was performed respectively, and a significant difference test between the test section for Sample 2 and the test section for which only the aging induction was performed were each performed, and “*(p<0.05)” was marked for those in which a significant difference was recognized.

[3] = test system: Normal human epidermal keratinocytes; test: Suppression of decrease in hyaluronic acid production capability due to aging induction, keratinocytes (ELISA); details: 50 μM, 0.5 mM hydrogen peroxide
Experimental: Normal human epidermal keratinocytes were seeded in 24 well plates (1.0×10^5 cells/well, N=3) and precultured for 24 hours (5% CO2, 37° C.). As a medium, a commercially available keratinocyte growth medium (PromoCell) was used. Thereafter, the wells were washed once with PBS (−), then replaced with a keratinocyte growth medium dissolved so that the final concentration of Sample 1 was 50 μM, and further incubated for 30 minutes. Thereafter, normal human epidermal keratinocytes were treated with a medium adjusted to have a final concentration of hydrogen peroxide of 0.5 mM to induce aging. Thereafter, the medium was replaced with a new keratinocyte growth medium and incubated for 24 hours, and then the amount of hyaluronic acid was quantified by an ELISA method using a hyaluronic acid quantification kit (Cosmo Bio). For comparison, a test section not treated with oxidized glutathione trisulfide was provided.
The hyaluronic acid production amount in each of the test sections was shown as a relative value when the hyaluronic acid production amount in the test section in which neither oxidized glutathione trisulfide treatment nor aging induction was performed was taken as 100. […]

[4] = target: T1, tyrosinase derived from B16 mouse melanoma cells (Mus musculus, UniProt P11344); test: Tyrosinase activity suppression test; details: 0.05 mM or 0.1 mM at melanin induction; L-DOPA, absorbance at 490 nm corrected by protein concentration; FIG. 6
T1 construct: a protein extract containing tyrosinase derived from B16 mouse melanoma cells; endogenous in cells; host or cells: B16 mouse melanoma cells, alpha-MSH induced
T1 sequence (P11344 19-533): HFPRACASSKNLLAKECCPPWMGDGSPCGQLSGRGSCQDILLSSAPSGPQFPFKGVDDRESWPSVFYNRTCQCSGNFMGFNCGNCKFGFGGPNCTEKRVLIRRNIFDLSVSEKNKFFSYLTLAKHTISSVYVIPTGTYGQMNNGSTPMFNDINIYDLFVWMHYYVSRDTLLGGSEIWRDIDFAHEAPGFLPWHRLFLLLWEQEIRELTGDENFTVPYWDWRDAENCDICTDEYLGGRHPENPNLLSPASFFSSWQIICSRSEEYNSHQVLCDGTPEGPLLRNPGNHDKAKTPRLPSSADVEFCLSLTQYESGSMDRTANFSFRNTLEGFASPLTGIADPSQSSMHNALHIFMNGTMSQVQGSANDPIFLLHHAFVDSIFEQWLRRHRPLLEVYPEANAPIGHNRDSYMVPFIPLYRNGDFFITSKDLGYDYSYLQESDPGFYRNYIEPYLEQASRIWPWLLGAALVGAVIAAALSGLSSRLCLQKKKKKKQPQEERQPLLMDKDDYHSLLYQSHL
Experimental: The tyrosinase activity inhibitory effect can be known by comparing the value of the absorbance at 490 nm corrected by the protein concentration measured by adding the test substance at the time of melanin induction and the same operation with the value of the test section to which the test substance is not added.
B16 mouse melanoma cells were seeded in a 6 well plate (2.0×10^4 cells/well), and cultured for 24 hours in D-MEM medium to which 5% fetal bovine serum was added with respect to the medium (5% CO2, 37° C.). Thereafter, α-MSH (final concentration: 200 nM) was added, and the cells were cultured in a serum-free D-MEM medium for 24 hours to induce melanin. […] The protein concentration of the obtained sample was measured by the BCA method.
The same operation was performed except that melanin induction was not performed, and a reference sample was obtained. […] Fifty μL of a sample of each test section was placed in a 96 well plate (n=3), 50 μL of 0.8 mg/mL L-DOPA was added, the mixture was reacted at 37° C. for 1 hour, and then the absorbance at 490 nm was measured with a microplate reader. The absorbance was corrected by the protein concentration, and the relative value of each test section was calculated when the measured value of the reference sample was 100. […]

[5] = test system: Normal human epidermal keratinocytes; test: Suppression of decrease in proliferation capability of aging-induced normal human epidermal keratinocytes (MTT assay); details: 50 μM or 100 μM, aging induced with 0.5 mM hydrogen peroxide; compared with only aging induction; FIG. 2
Experimental: Normal human epidermal keratinocytes were seeded in 96 well plates (1.0×10^4 cells/well, N=3) and precultured for 24 hours (5% CO2, 37° C.). As a medium, a commercially available keratinocyte growth medium (PromoCell) was used. Thereafter, the wells were washed once with PBS (−), then replaced with a keratinocyte growth medium dissolved so that the final concentration of Sample 1 was 50 μM or 100 μM, and further incubated for 30 minutes. […] Thereafter, an MTT assay was performed according to a conventional method, and the survival rate of normal human epidermal keratinocytes was calculated as a relative value when the survival rate of cells in a test section in which neither the treatment with oxidized glutathione trisulfide nor the aging induction was performed was taken as 100. For comparison, a test section in which only aging induction was performed without treatment with oxidized glutathione trisulfide was set. Regarding the survival rate, a significant difference test (t-test, two-tailed) between the two groups of the test section of Sample 1 and the test section in which only aging induction was performed was performed respectively.

Question: Which “melanin production amount compared with the reference sample (absorbance at 405 nm)” value (B16 mouse melanoma cells) does the source give for `CC(=O)N[C@@H](CSSSC[C@H](NC(C)=O)C(=O)O)C(=O)O` [Sample 2, oxidized NAC trisulfide] here?
Answer: Its value is “significantly low”.

Question: And the “concentration needed for melanin production suppressing effect compared with kojic acid (1 mM) and reduced glutathione (3 mM)” value (B16 mouse melanoma cells; α-MSH 200 nM)?
Answer: The value was “melanin production can be suppressed at a lower concentration”.

Question: What about the “cell proliferation rate (survival rate of fibroblasts, MTT, relative value)” value (Normal human fibroblasts [1]) of the same compound?
Answer: The value was “significant cell proliferation rate”.

Question: What about the “amount of hyaluronic acid compared with test section of only aging induction” value (Normal human fibroblasts [2]) of the same compound?
Answer: The value was “significantly higher”.

Question: And the “hyaluronic acid production capability compared with test sections that did not induce aging” value (Normal human fibroblasts [2])?
Answer: Its value is “The same result was obtained”.

Question: Which “melanin production amount compared with the reference sample (absorbance at 405 nm)” value (B16 mouse melanoma cells) does the source give for `N[C@@H](CCC(=O)N[C@@H](CSSSC[C@H](NC(=O)CC[C@H](N)C(=O)O)C(=O)NCC(=O)O)C(=O)NCC(=O)O)C(=O)O` [Sample 1, oxidized glutathione trisulfide] here?
Answer: Its value is “significantly low”.

Question: And the “concentration needed for melanin production suppressing effect compared with kojic acid (1 mM) and reduced glutathione (3 mM)” value (B16 mouse melanoma cells; α-MSH 200 nM)?
Answer: Its value is “exhibited a melanin production suppressing effect at a lower concentration”.

Question: What about the “cell proliferation rate (survival rate of fibroblasts, MTT, relative value)” value (Normal human fibroblasts [1]) of the same compound?
Answer: Its value is “significant cell proliferation rate”.

Question: What about the “amount of hyaluronic acid compared with test section of only aging induction” value ([3]; 24 h, ELISA, p<0.05, FIG. 4) of the same compound?
Answer: Its value is “significantly higher”.

Question: What about the “hyaluronic acid production capability compared with control group in which aging is not induced” value ([3]; no significant difference between the two groups, FIG. 4) of the same compound?
Answer: The value was “same hyaluronic acid production capability”.

Question: What about the “tyrosinase activity compared with test section in which only melanin induction was performed” value [4] of the same compound?
Answer: The value was “significantly lower”.

Question: What about the “tyrosinase activity compared with the reference sample (no melanin induction)” value [4] of the same compound?
Answer: Its value is “same degree of tyrosinase activity as the reference sample”.

Question: What about the “amount of hyaluronic acid compared with test section of only aging induction” value (Normal human fibroblasts [2]) of the same compound?
Answer: Its value is “significantly higher”.

Question: What about the “hyaluronic acid production capability compared with test sections that did not induce aging” value (Normal human fibroblasts [2]) of the same compound?
Answer: The value was “same hyaluronic acid production capability”.

Question: What about the “cell proliferation rate (survival rate of keratinocytes, MTT, relative value)” value [5] of the same compound?
Answer: The value was “significant cell proliferation rate”.

Question: With `N[C@@H](CCC(=O)N[C@@H](CS)C(=O)NCC(=O)O)C(=O)O` [reduced glutathione, reference compound] as the compound, how does the “melanin production suppressing effect compared with 0.02 mM test section of Sample 1” value (B16 mouse melanoma cells; reduced glutathione final concentration 3 mM, α-MSH 200 nM) read?
Answer: The value was “same melanin production suppressing effect”.
